Measurements published in patent US20220079931A1, “ESTROGEN RECEPTOR PROTEIN DEGRADERS” (THE REGENTS OF THE UNIVERSITY OF MICHIGAN, priority 2019, published 2022).

Experiments:
[1] = tested on: MCF-7 cells; test: WST-8 cell proliferation assay in MCF-7 cells; format: cell-based, human; details: MCF-7 cells, WST-8, 4 days
Description: (§1) Cell Culture. Human breast cancer cell lines MCF-7 (ATCC® HTB-22™) and T47D (ATCC® HTB-133™) were purchased from the American Type Culture Collection (ATCC), Manassas, Va., and maintained and cultured in Dulbecco's Modified Eagle's medium (DMEM) containing 10% fetal bovine serum, 1 unit/ml of penicillin and 1 μg/ml of streptomycin. Cells with 3-8 passages after purchase were used in experiments as indicated.
Cell Growth Assay. Cells were seeded at 1500/well in 96 well plates overnight. One day after seeding, they were treated with indicated doses of compounds. The growth of the cells was evaluated by colorimetric WST-8 assay 4 days after the compound treatment following the instructions of the manufacturer, Cayman Chemical, Ann Arbor, Mich.
Fulvestrant achieves an Imax value of 43.8%. […] RAD1901, a previously reported SERD molecule^18, achieves an Imax value of 25.7%.

[2] = background statement; cited from earlier work
[3] = background statement; cited from earlier work; remark: listed apart in the source
[4] = target: T1, ERα (Homo sapiens, UniProt P03372); test: ER degradation by Western blotting in MCF-7 cells; format: cell-based; set-up: host or cells: MCF-7; details: 30 nM
T1 sequence (P03372 1-595): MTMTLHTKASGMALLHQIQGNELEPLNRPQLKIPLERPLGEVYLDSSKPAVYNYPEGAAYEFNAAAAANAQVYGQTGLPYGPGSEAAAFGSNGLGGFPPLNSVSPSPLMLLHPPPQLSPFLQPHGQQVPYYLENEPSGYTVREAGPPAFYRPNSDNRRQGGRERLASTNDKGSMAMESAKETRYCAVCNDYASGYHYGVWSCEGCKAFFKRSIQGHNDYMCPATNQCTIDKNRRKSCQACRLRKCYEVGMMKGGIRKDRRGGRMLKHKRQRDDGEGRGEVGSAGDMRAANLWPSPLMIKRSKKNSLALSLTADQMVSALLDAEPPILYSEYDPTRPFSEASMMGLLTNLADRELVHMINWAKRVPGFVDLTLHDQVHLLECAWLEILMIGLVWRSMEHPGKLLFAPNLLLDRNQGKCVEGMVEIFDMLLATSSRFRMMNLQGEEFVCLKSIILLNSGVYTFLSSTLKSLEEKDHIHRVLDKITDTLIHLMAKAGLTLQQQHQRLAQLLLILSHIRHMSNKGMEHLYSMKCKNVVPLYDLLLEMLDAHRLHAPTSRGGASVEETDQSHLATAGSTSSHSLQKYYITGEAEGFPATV
Description: FIG. 1 is an image showing the Western blotting analysis of ER protein in MCF-7 cells treated with Compounds of the Disclosure and control compounds. Cells were treated with different compounds for 4 h and whole cell lysates were then analyzed by Western blotting to examine the level of ER protein. GADPH protein was used for the loading control. The numbers below the panel represent the ERα/GADPH ratio normalized with the DMSO control at 100.
FIG. 2 is an image showing the Western blotting analysis of ER protein in the MCF-7 cells treated with indicated compounds at 1 nM, 10 nM and 100 nM. MCF-7 cells were treated with different compounds for 4 h and whole cell lysates were analyzed by Western blotting to examine the level of ER protein. GADPH protein was used for the loading control. The numbers below the panel represent the ERα/GADPH ratio normalized with the DMSO control at 100.
FIG. 7 is an image showing the ERα degradation dose-response Western blotting for compound 32 at 4 h in MCF-7 cells.
FIG. 9 is an image showing the time course of ERα degradation by Western blotting by compound 32 (30 nM) and fulvestrant (30 nM) in the MCF-7 cells.
as §1
(§2) Western Blot Analysis. Western blot analysis was performed essentially as described previously (Hu et al, 2015, PMID: 26358219). Cells treated with indicated compounds were lysed in Radioimmunoprecipitation Assay Protein Lysis and Extraction Buffer (25 mmol/L Tris.HCl, pH 7.6, 150 mmol/L NaCl, 1% Nonidet P-40, 1% sodium deoxycholate, and 0.1% sodium dodecyl sulfate) containing proteinase inhibitor cocktail (Roche Diagnostics, Mannheim, Germany). After determination of protein concentration by BCA assay (Fisher Scientific, Pittsburgh, Pa.), equal amounts of total protein were electrophoresed through 10% SDS-polyacrylamide gels. The separated protein bands were transferred onto PVDF membranes (GE Healthcare Life Sciences, Marlborough, Mass.) and blotted against different antibodies, as indicated. The human estrogen receptor a antibodies (AB16460) were purchased from Abeam, Inc., Cambridge, Mass. The membranes were reblotted with horseradish peroxidase-conjugated anti-glyceraldehyde-3-phosphate dehydrogenase antibody (G9295) from Sigma-Aldrich Corporation, St. Louis, Mo. The blots were scanned and the band intensities were quantified using GelQuant.NET software as described in biochemlabsolutions.com. The relative mean intensity of target proteins was expressed after normalization to the intensity of glyceraldehyde-3-phosphate dehydrogenase bands from individual repeats.

[5] = target: T2, VHL-ElonginBC complex (Homo sapiens, UniProt P40337); test: Fluorescence-polarization (FP) competitive binding assay for VHL; details: VHL ligands; VHL-ElonginBC complex and fluorescent probe both 5 nM; read-out: FP Binding affinity IC50
T2 construct: His-TEV (His-tag with TEV protease site) (cleaved yes); made in house; host or cells: E. coli BL21(DE3)
Description: Cloning and Purification of VHL-ElonginBC complex. The DNA sequence of VHL (coding for residues 54-213) was constructed by PCR and inserted into a His-TEV expression vector^58 using ligation-independent cloning. The DNA sequences of Elongin B (encoding residues 1-118) and Elongin C (encoding residues 1-96) were constmcted by PCR and inserted into pCDFDuet 1 using Gibson assembly.^59 BL21(DE3) cells were transformed simultaneously with both plasmids and grown in Terrific Broth at 37° C. until an OD600 of 1.2. The cells were induced overnight with 0.4 mM IPTG at 24° C. Pelleted cells were freeze-thawed then resuspended in 20 mM Tris HCl pH7.0, 200 mM NaCl and 0.1% β-mercaptoethanol (bME) containing protease inhibitors. The cell suspension was lysed by sonication and debris removed via centrifugation. The supernatant was incubated at 4° C. for 1 hr with Ni-NTA (Qiagen) pre-washed in 20 mM Tris-HCl pH 7.0, 200 mM NaCl and 10 mM Imidazole. The protein complex was eluted in 20 mM Tris-HCl pH 7.0, 200 mM NaCl and 300 mM Imidazole, dialyzed into 20 mM Tris-HCl pH 7.0, 150 mM NaCl, and 0.01% bME and incubated with TEV protease overnight at 4° C. The protein sample was reapplied to the Ni-NTA column to remove the His-tag. The flow through containing the VHL complex was diluted to 75 mM NaCl and applied to a HiTrap Q column (GE Healthcare). The sample was eluted with a salt gradient (0.075-1 M NaCl), concentrated and further purified on a Superdex S75 column (GE Healthcare) pre-equilibrated with 20 mM Bis-Tris 7.0, 150 mM NaCl and 1 mM DTT. Samples were aliquoted and stored at −80° C.
Binding Affinities of VHL ligands to VHL. A fluorescence-polarization (FP) competitive assay was established using VHL-ElonginBC complex and a fluorescently tagged probe (SI). The IC50 and Ki values of VHL ligands were determined in competitive binding experiments. Mixtures of 5 μL of compounds in DMSO and 95 μL of preincubated protein/tracer complex solution were added into assay plates which were incubated at rt for 60 min with gentle shaking. Final concentrations of VHL-ElonginBC complex and fluorescent probe were both 5 nM. Negative controls containing protein/probe complex only (equivalent to 0% inhibition) and positive controls containing only free probes (equivalent to 100% inhibition) were included in each assay plate. FP values in millipolarization units (mP) were measured using the Infinite M-1000 plate reader (Tecan U.S., Research Triangle Park, N.C.) in Microfluor 1 96-well, black, round-bottom plates (Thermo Scientific, Waltham, Mass.) at an excitation wavelength of 485 nm and an emission wavelength of 530 nm. IC50 values were determined by nonlinear regression fitting of the competition curves. Ki values of competitive inhibitors were obtained directly by nonlinear regression fitting, based upon the KD values of the probe and concentrations of the protein and probe in the competitive assays. All the FP competitive experiments were performed in duplicate in three independent experiments.

[6] = target: T1, ERα; test: Mechanism of ER degradation: pretreatment with VHL ligand, ER ligand or proteasome inhibitor, Western blotting in MCF-7 cells; format: cell-based; set-up: host or cells: MCF-7; details: 1 μM, alone
Description: (§3) Then whole-cell lysates were analyzed by Western blotting.
as §3
as §2, with “Western blot analysis was performed essentially as described previously (Hu et al, 2015, PMID: 26358219).” left out

| Compound | IC50 [5] [µM] | maximum inhibition (Imax) [1] [%] | also measured |
| --- | --- | --- | --- |
| C[C@]12CC[C@@H]3c4ccc(O)cc4C[C@@H](CCCCCCCCC[S+]([O-])CCCC(F)(F)C(F)(F)F)[C@H]3[C@@H]1CC[C@@H]2O (some centres unmarked) [fulvestrant] |  | 43.8 | solubility [2]: poor solubility; oral bioavailability [3]: not orally bioavailable; reduction of ER protein level at 1 h ([4]; 1 h treatment): only a modest effect; maximum ER degradation in time course ([4]; after a 24 h treatment): approximately 90% |
| CCNCCc1ccc(CN(CC)c2cc(OC)ccc2[C@@H]2CCc3cc(O)ccc3C2)cc1 [RAD1901] |  | 25.7 |  |
| O=C(c1ccc(OCCN2CCCCC2)cc1)c1c(-c2ccc(O)cc2)sc2cc(O)ccc12 [raloxifene] |  | 34.0 |  |
| CC(C)C[C@H](NC(=O)[C@H](CCc1ccccc1)NC(=O)CN1CCOCC1)C(=O)N[C@@H](Cc1ccccc1)C(=O)N[C@@H](CC(C)C)C(=O)[C@@]1(C)CO1 [carfilzomib, reference compound] |  |  | effect alone on ER protein levels [6]: no effect |

Continued, in another order:

| IC50 [5] [µM] | Compound | maximum inhibition (Imax) [1] [%] | also measured |
| --- | --- | --- | --- |
| 4.83 ± 0.418 | CC(=O)N[C@H](C(=O)N1C[C@H](O)C[C@H]1C(=O)N[C@@H](C)c1ccc(C#N)cc1)C(C)(C)C [45a, (2S,4R)-1-((S)-2-acetamido-3,3-dimethylbutanoyl)-N—((S)-1-(4-cyanophenyl)ethyl)-4-hydroxypyrrolidine-2-carboxamide] |  |  |
| 7.87 ± 0.642 | CC(=O)N[C@H](C(=O)N1C[C@H](O)C[C@H]1C(=O)N[C@@H](C)c1ccc(Cl)cc1)C(C)(C)C [43a, (2S,4R)-1-((S)-2-acetamido-3,3-dimethylbutanoyl)-N—((S)-1-(4-chlorophenyl)ethyl)-4-hydroxypyrrolidine-2-carboxamide] |  |  |
| 58.9 ± 5.26 | CC(=O)N[C@H](C(=O)N1C[C@H](O)C[C@H]1C(=O)N[C@@H](C)c1ccc(C(C)(C)C)cc1)C(C)(C)C [48a, (2S,4R)-1-((S)-2-acetamido-3,3-dimethylbutanoyl)-N—((S)-1-(4-(tert-butyl)phenyl)ethyl)-4-hydroxypyrrolidine-2-carboxamide] |  |  |
